{"source": "patent US20260265299A1", "about": "“SYNTHESIS OF BICYCLE TOXIN CONJUGATES, AND INTERMEDIATES THEREOF” (priority 2023, published 2026)", "assay_type_in_all_cases": "physicochemical", "key": {"[1]": {"assay": "Stress test of gvcMMAE at different drying temperature (HPLC)", "conditions": "for HPLC/area % gvcMMAE: dry", "description": "3.3.13. Stress Test of gvcMMAE at Different Drying Temperature (Table 22 and 23)\nStress test of gvcMMAE at different drying temperatures was done. According to the result listed below, gvcMMAE was stable at 40° C. for 3 days."}, "[2]": {"assay": "Solubility of gvcMMAE in different solvents (assay in mother liquor)", "conditions": "for Assay in ML (w/w %): 20-30° C., 0.5 h, free acid state", "description": "3.3.6. Study the Solubility of gvcMMAE in Different Solvents (Table 10)\nSolubility of gvcMMAE (free acid state) in different solvents (THF, DCM, MTBE, n-Heptane, iPrOAc, 1,4-dioxane) were investigated."}, "[3]": {"assay": "DVS test (hygroscopicity)", "description": "(Uptake 3.6% water on sorption curve between 40% RH and 80% RH, at 25° C.)."}, "[4]": {"assay": "Moisture absorption experiment at 60% RH", "conditions": "3 days", "description": "100 mg of gvcMMAE was stood at 60% RH condition to do a moisture absorption experiment. The solid state had no change (The weight changed to 103 mg) after 3 days."}}, "note": "Starred links: 1 amine or outer side, 2 acyl side, 3 side chain; linkers in the order of their positions; H or OH if unused. Non-standard residues stand in square brackets, D forms with d. Residues, ends and D or L forms follow the SMILES beside them. ξ: configuration not given here. *: point of attachment. Dolaproine = CO[C@@H]([C@@H]1CCCN1)[C@@H](C)C(=O)O; ξDil = CC[C@H](C)C([C@@H](CC(=O)[*:2])OC)N(C)[*:1]; PABC = O=C(OCc1ccc(N[*:1])cc1)[*:2]; Glutaryl = O=C(CCCC(=O)[*:2])[*:1]; X1 = C[C@@H](N*)[C@@H](O)c1ccccc1; Cit = NC(=O)NCCC[C@H](N)C(=O)O; NMeV = CN[C@H](C(=O)O)C(C)C", "data": [{"compound": "CC[C@H](C)C([C@@H](CC(=O)N1CCC[C@H]1[C@H](OC)[C@@H](C)C(=O)N[C@H](C)[C@@H](O)c1ccccc1)OC)N(C)C(=O)[C@@H](NC(=O)[C@H](C(C)C)N(C)C(=O)OCc1ccc(NC(=O)[C@H](CCCNC(N)=O)NC(=O)[C@@H](NC(=O)CCCC(=O)O)C(C)C)cc1)C(C)C", "note": "(stereo partly drawn) [gvcMMAE, Glutaryl-Val-Cit-PAB-MMAE] (Glutaryl-V[Cit][PABC][NMeV]V[ξDil][Dolaproine]-X1)", "values": [{"measurement": "HPLC/area % gvcMMAE", "setting": "[1]; 20° C., 3 days", "value": 98.62, "unit": "area %"}, {"measurement": "HPLC/area % gvcMMAE", "setting": "[1]; 30° C., 3 days", "value": 98.65, "unit": "area %"}, {"measurement": "Stability at drying temperature (in words)", "setting": "[1]; 40° C. for 3 days", "value": "stable"}, {"measurement": "HPLC/area % gvcMMAE", "setting": "[1]; 40° C., 3 days", "value": 98.61, "unit": "area %"}, {"measurement": "HPLC/area % gvcMMAE", "setting": "[1]; 50° C., 3 days", "value": 98.52, "unit": "area %"}, {"measurement": "HPLC/area % gvcMMAE", "setting": "[1]; before stress test", "value": 98.54, "unit": "area %"}, {"measurement": "Assay in ML (w/w %)", "setting": "[2]; 1,4-dioxane 20 v", "value": 0.22, "unit": "w/w %"}, {"measurement": "Assay in ML (w/w %)", "setting": "[2]; DCM 20 v", "value": 0.00, "unit": "w/w %"}, {"measurement": "Assay in ML (w/w %)", "setting": "[2]; MTBE 20 v", "value": 0.00, "unit": "w/w %"}, {"measurement": "Assay in ML (w/w %)", "setting": "[2]; N-heptane 20 v", "value": 0.00, "unit": "w/w %"}, {"measurement": "Assay in ML (w/w %)", "setting": "[2]; THF 20 v", "value": 0.47, "unit": "w/w %"}, {"measurement": "Solubility in solvents (in words)", "setting": "[2]; THF, DCM, MTBE, n-Heptane, iPrOAc, 1,4-dioxane", "value": "insoluble in most solvents"}, {"measurement": "Assay in ML (w/w %)", "setting": "[2]; iPrOAc 20 v", "value": 0.00, "unit": "w/w %"}, {"measurement": "Hygroscopicity (DVS)", "setting": "[3]; 80% RH at 25° C.", "value": "hygroscopic"}, {"measurement": "Water uptake on sorption curve", "setting": "[3]; between 40% RH and 80% RH, at 25° C.", "value": 3.6, "unit": "%"}, {"measurement": "Solid state after moisture absorption", "setting": "[4]; 100 mg", "value": "no change"}, {"measurement": "Weight after moisture absorption", "setting": "[4]; starting from 100 mg", "value": 103, "unit": "mg"}]}]}
